Test results published in US20080058356A1, “2,6 Bisheteroaryl-4-Aminopyrimidines as Adenosine Receptor Antagonists” (Neurocrine Biosciences, Inc., priority 2003, published 2008).

SMILES	melting point [°C]
c1ccc([C@H]2C[C@@H]2Nc2cc(-c3ccco3)nc(-c3nccs3)n2)cc1 (relative stereo) [Example 198, 6-(2-Furyl)-N-[(1S*,2R*)-2-phenylcyclopropyl]-2-(1,3-thiazol-2-yl)pyrimidin-4-amine]	90 to 91.9
Nc1cc(-n2cccn2)nc(-c2ccc(Cl)o2)n1 [Example 50, 2-(5-Chloro-2-furyl)-6-(1H-pyrazol-1-yl)pyrimidin-4-amine]	209.9 to 211
CCC(=O)Nc1cc(-n2cccn2)nc(-c2ccc(Cl)o2)n1 [Example 51, N-[2-(5-Chloro-2-furyl)-6-(1H-pyrazol-1-yl)pyrimidin-4-yl]propanamide]	189.3 to 190.1
CCC(=O)Nc1cc(-c2cccnc2)nc(-c2ccco2)n1 [Example 54, N-[2-(2-Furyl)-6-pyridin-3-ylpyrimidin-4-yl]propanamide]	251.8 to 253.2
Nc1cc(-c2cccnc2)nc(-c2ccco2)n1 [Example 55, 2-(2-Furyl)-6-pyridin-3-ylpyrimidin-4-amine]	232.7 to 233.1
c1coc(-c2nc(NCC3CC3)cc(-n3cccn3)n2)c1 [Example 119, N-(Cyclopropylmethyl)-2-(2-furyl)-6-(1H-pyrazol-1-yl)pyrimidin-4-amine]	100.9 to 101.7
NCCNc1cc(-n2cccn2)nc(-c2ccco2)n1 [Example 122, N-[2-(2-Furyl)-6-(1H-pyrazol-1-yl)pyrimidin-4-yl]ethane-1,2-diamine]	104.1 to 105.1
c1ccc(CCNc2cc(-n3cccn3)nc(-c3ccco3)n2)nc1 [Example 125, 2-(2-Furyl)-6-(1H-pyrazol-1-yl)-N-[2-(pyridin-2-yl)ethyl]pyrimidin-4-amine]	110.2 to 110.9
OCCCNc1cc(-n2cccn2)nc(-c2cccs2)n1 [Example 131, 3-{[6-(1H-Pyrazol-1-yl)-2-(2-thienyl)pyrimidin-4-yl]amino}propan-1-ol]	129.9 to 130.8
NCCNc1cc(-n2cccn2)nc(-c2cccs2)n1 [Example 132, N-(2-Aminoethyl)-N-[6-(1H-pyrazol-1-yl)-2-(2-thienyl)pyrimidin-4-yl]amine]	146.6 to 147.1
COc1ccc(CCNc2cc(-n3cccn3)nc(-c3cccs3)n2)cc1OC [Example 134, N-[2-(3,4-Dimethoxyphenyl)ethyl]-6-(1H-pyrazol-1-yl)-2-(2-thienyl)pyrimidin-4-amine]	116.2 to 117.3
COc1ccc(CCNc2cc(-c3ccco3)nc(-c3nccs3)n2)cc1OC [Example 196, N-[2-(3,4-Dimethoxyphenyl)ethyl]-6-(2-furyl)-2-(1,3-thiazol-2-yl)pyrimidin-4-amine]	83 to 83.8
COc1ccc(COC(=O)Nc2cc(-n3cccn3)nc(-c3ccco3)n2)cc1OC [Example 202, 3,4-Dimethoxybenzyl [2-(2-furyl)-6-(1H-pyrazol-1-yl)pyrimidin-4-yl]carbamate]	147.8 to 148.5
